According to PubChem BioAssay AID330 (DTP/NCI, 2004):
Several values for one entry are separate records, joined by “and”; a condition that tells them apart may be missing. Equal values may be shown once. Inconclusive results and toxic doses are left out.

System: P388 leukemia ip, CD2F1 mice, survival T/C
Assay: NCI In Vivo Anticancer Drug Screen. Data for tumor model P388 Leukemia (intraperitoneal) in CD2F1 (CDF1) mice
Details: endpoint: median survival time, higher = longer survival
Outline: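 Mice carrying the transplanted tumor received test compound or vehicle. Survival was recorded in each group, and the value is the treated-group measurement divided by that of the vehicle-treated control group.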

[1] = dose: 50.0 mg/kg/injection, schedule: Q01DX009 (ip), vehicle: saline with Tween-80
[2] = dose: 100.0 mg/kg/injection, schedule: Q01DX009 (ip), vehicle: saline with Tween-80
[3] = dose: 200.0 mg/kg/injection, schedule: Q01DX009 (ip), vehicle: saline with Tween-80
[4] = dose: 1.56 mg/kg/injection, schedule: Q01DX009 (ip), vehicle: water
[5] = dose: 100.0 mg/kg/injection, schedule: Q04DX002 (ip), vehicle: Klucel (hydroxypropylcellulose) (HPC)
[6] = dose: 200.0 mg/kg/injection, schedule: Q04DX002 (ip), vehicle: Klucel (hydroxypropylcellulose) (HPC)
[7] = dose: 400.0 mg/kg/injection, schedule: Q04DX002 (ip), vehicle: Klucel (hydroxypropylcellulose) (HPC)
[8] = dose: 50.0 mg/kg/injection, schedule: Q01DX005 (ip), vehicle: Klucel (hydroxypropylcellulose) (HPC)

Compound: c1ccc2nc3nc4ccccc4nc3nc2c1
- T/C (dose: 15.0 mg/kg/injection, schedule: Q01DX009 (ip), vehicle: saline with Tween-80): 92 % of control
- T/C (dose: 30.0 mg/kg/injection, schedule: Q01DX009 (ip), vehicle: saline with Tween-80): 114 % of control
- T/C (dose: 50.0 mg/kg/injection, schedule: Q01DX005 (ip), vehicle: Klucel + Tween-80): 90 % of control
- T/C [1]: 103 % of control
- T/C (dose: 60.0 mg/kg/injection, schedule: Q01DX009 (ip), vehicle: saline with Tween-80): 111 % of control
- T/C (dose: 100.0 mg/kg/injection, schedule: Q01DX005 (ip), vehicle: Klucel + Tween-80): 96 % of control
- T/C [2]: 113 % of control
- T/C (dose: 200.0 mg/kg/injection, schedule: Q01DX005 (ip), vehicle: Klucel + Tween-80): 93 % of control
- T/C [3]: 107 % of control

Compound: Cc1c(O)c2c(c(O)c1Cc1cccc(CN)c1)C(=O)c1ccccc1C2=O
- T/C [4]: 91 % of control
- T/C (dose: 25.0 mg/kg/injection, schedule: Q01DX009 (ip), vehicle: water): 89 % of control

Compound: COc1ccc2c(c1OC)C(OC)OC(c1cc3c(cc1CCN(C)C)OCO3)C2 (stereo not given)
- T/C (dose: 12.5 mg/kg/injection, schedule: Q01DX001 (ip), vehicle: saline + alcohol): 91 % of control
- T/C (dose: 25.0 mg/kg/injection, schedule: Q01DX001 (ip), vehicle: saline + alcohol): 88 % of control
- T/C (dose: 50.0 mg/kg/injection, schedule: Q01DX001 (ip), vehicle: saline + alcohol): 91 % of control

Compound: COC(C)(C)c1cc(C(C)(C)C)cc2c1SOC2(C)C
- T/C [5]: 94 % of control
- T/C [6]: 100 % of control
- T/C [7]: 114 % of control

Compound: [Cl][Co][Cl].c1ccc2[nH]cnc2c1.c1ccc2[nH]cnc2c1
- T/C [8]: 111 % of control
- T/C (dose: 100.0 mg/kg/injection, schedule: Q01DX005 (ip), vehicle: Klucel (hydroxypropylcellulose) (HPC)): 111 % of control

Compound: CCCCCCCCCCC1(O)OC(=O)C(C)=C1C (stereo not given)
- T/C (dose: 12.5 mg/kg/injection, schedule: Q04DX003 (ip), vehicle: saline with Tween-80): 100 % of control
- T/C (dose: 25.0 mg/kg/injection, schedule: Q04DX003 (ip), vehicle: saline with Tween-80): 101 % of control
- T/C (dose: 50.0 mg/kg/injection, schedule: Q04DX003 (ip), vehicle: saline with Tween-80): 100 % of control

Compound: O=C(CS)Nc1ccccn1
- T/C (dose: 12.5 mg/kg/injection, schedule: Q01DX009 (ip), vehicle: Klucel (hydroxypropylcellulose) (HPC)): 104 % of control
- T/C (dose: 25.0 mg/kg/injection, schedule: Q01DX009 (ip), vehicle: Klucel (hydroxypropylcellulose) (HPC)): 103 % of control
- T/C (dose: 50.0 mg/kg/injection, schedule: Q01DX009 (ip), vehicle: Klucel (hydroxypropylcellulose) (HPC)): 103 % of control and 114 % of control

Compound: COc1cccc2c1C(=O)c1c(O)c3c(c(O)c1C2=O)C[C@@](O)(C(O)CO)C[C@@H]3OC1CC(NCc2ccccc2)C(O)C(C)O1 (stereo not given in full)
- T/C (dose: 0.39 mg/kg/injection, schedule: Q01DX009 (ip), vehicle: water): 158 % of control and 167 % of control
- T/C (dose: 0.78 mg/kg/injection, schedule: Q01DX009 (ip), vehicle: water): 157 % of control and 162 % of control and 169 % of control
- T/C (dose: 1.18 mg/kg/injection, schedule: Q04DX003 (ip), vehicle: water): 106 % of control
- T/C [4]: 157 % of control and 190 % of control and 196 % of control
- T/C (dose: 2.35 mg/kg/injection, schedule: Q04DX003 (ip), vehicle: water): 106 % of control
- T/C (dose: 3.13 mg/kg/injection, schedule: Q01DX009 (ip), vehicle: water): 163 % of control and 176 % of control and 192 % of control
- T/C (dose: 9.4 mg/kg/injection, schedule: Q04DX003 (ip), vehicle: water): 116 % of control

Compound: c1ccc(C(c2ccccc2)[P+](c2ccccc2)(c2ccccc2)c2ccccc2)cc1
- T/C (dose: 0.15 mg/kg/injection, schedule: Q01DX009 (ip), vehicle: Klucel (hydroxypropylcellulose) (HPC)): 101 % of control
- T/C (dose: 0.31 mg/kg/injection, schedule: Q01DX009 (ip), vehicle: Klucel (hydroxypropylcellulose) (HPC)): 109 % of control and 114 % of control
- T/C (dose: 0.63 mg/kg/injection, schedule: Q01DX009 (ip), vehicle: Klucel (hydroxypropylcellulose) (HPC)): 111 % of control
- T/C (dose: 1.25 mg/kg/injection, schedule: Q01DX009 (ip), vehicle: Klucel (hydroxypropylcellulose) (HPC)): 118 % of control and 123 % of control and 86 % of control

Compound: O=[N+]([O-])c1c(Cl)sc(Cl)c1[N+](=O)[O-]
- T/C (dose: 1.56 mg/kg/injection, schedule: Q01DX009 (ip), vehicle: saline with Tween-80): 105 % of control
- T/C (dose: 3.12 mg/kg/injection, schedule: Q01DX009 (ip), vehicle: saline with Tween-80): 104 % of control
- T/C (dose: 6.25 mg/kg/injection, schedule: Q01DX009 (ip), vehicle: saline with Tween-80): 87 % of control and 95 % of control
- T/C (dose: 6.25 mg/kg/injection, schedule: Q04DX003 (ip), vehicle: saline sonified): 110 % of control
- T/C (dose: 12.5 mg/kg/injection, schedule: Q04DX003 (ip), vehicle: saline sonified): 100 % of control
- T/C (dose: 25.0 mg/kg/injection, schedule: Q04DX003 (ip), vehicle: saline sonified): 100 % of control

Compound: COc1ccc2cc3n(cc-2c1=O)CCc1cc2c(cc1-3)OCO2
- T/C (dose: 100.0 mg/kg/injection, schedule: Q04DX003 (ip), vehicle: water): 160 % of control

Compound: COc1ccc(CC(=O)c2ccc(OC)cc2O)cc1
- T/C (dose: 100.0 mg/kg/injection, schedule: Q01DX001 (ip), vehicle: saline with Tween-80): 103 % of control
- T/C (dose: 200.0 mg/kg/injection, schedule: Q01DX001 (ip), vehicle: saline with Tween-80): 104 % of control
- T/C (dose: 400.0 mg/kg/injection, schedule: Q01DX001 (ip), vehicle: saline with Tween-80): 101 % of control

Compound: O=c1c2ccccc2sc2cccc(NCCCN3CCN(CCCNc4cccc5sc6ccccc6c(=O)c45)CC3)c12
- T/C (dose: 0.5 mg/kg/injection, schedule: Q01DX005 (ip), vehicle: saline with Tween-80): 100 % of control
- T/C (dose: 1.0 mg/kg/injection, schedule: Q01DX005 (ip), vehicle: saline with Tween-80): 99 % of control
- T/C (dose: 2.0 mg/kg/injection, schedule: Q01DX005 (ip), vehicle: saline with Tween-80): 99 % of control
- T/C (dose: 4.0 mg/kg/injection, schedule: Q01DX005 (ip), vehicle: saline with Tween-80): 95 % of control
- T/C (dose: 8.0 mg/kg/injection, schedule: Q01DX005 (ip), vehicle: saline with Tween-80): 88 % of control

Compound: CC1=C(O)C(=O)C(c2c(C)cc(C)c(Br)c2C)=C(O)C1=O
- T/C (dose: 6.25 mg/kg/injection, schedule: Q01DX005 (ip), vehicle: Klucel (hydroxypropylcellulose) (HPC)): 100 % of control and 104 % of control
- T/C (dose: 12.5 mg/kg/injection, schedule: Q01DX005 (ip), vehicle: Klucel (hydroxypropylcellulose) (HPC)): 104 % of control and 117 % of control and 118 % of control
- T/C (dose: 25.0 mg/kg/injection, schedule: Q01DX005 (ip), vehicle: Klucel (hydroxypropylcellulose) (HPC)): 104 % of control and 117 % of control
- T/C [8]: 116 % of control and 94 % of control

Compound: C=CC(O)CN1CC1 (stereo not given)
- T/C (dose: 0.75 mg/kg/injection, schedule: Q04DX003 (ip), vehicle: saline): 122 % of control
- T/C (dose: 1.25 mg/kg/injection, schedule: Q01DX009 (ip), vehicle: saline): 158 % of control
- T/C (dose: 2.5 mg/kg/injection, schedule: Q01DX009 (ip), vehicle: saline): 113 % of control and 212 % of control
- T/C (dose: 3.0 mg/kg/injection, schedule: Q04DX003 (ip), vehicle: saline): 181 % of control
- T/C (dose: 6.0 mg/kg/injection, schedule: Q04DX003 (ip), vehicle: saline): 154 % of control
- T/C (dose: 10.0 mg/kg/injection, schedule: Q04DX003 (ip), vehicle: saline): 154 % of control

Compound: O=c1n(CC2CC3(Cl)C(Cl)=C(Cl)C2(Cl)C3(Cl)Cl)c(=O)n(CC2CC3(Cl)C(Cl)=C(Cl)C2(Cl)C3(Cl)Cl)c(=O)n1CC1CC2(Cl)C(Cl)=C(Cl)C1(Cl)C2(Cl)Cl (stereo not given)
- T/C (dose: 12.5 mg/kg/injection, schedule: Q01DX009 (ip), vehicle: saline with Tween-80): 101 % of control
- T/C (dose: 25.0 mg/kg/injection, schedule: Q01DX009 (ip), vehicle: saline with Tween-80): 95 % of control
- T/C [1]: 87 % of control and 95 % of control
- T/C [3]: 97 % of control

Compound: BOc1ccc(C)cc1CN(C)Cc1ccccc1
- T/C [5]: 103 % of control
- T/C [6]: 99 % of control
- T/C [7]: 104 % of control

Compound: Cc1cccnc1NC1OC(=O)c2ccccc21 (stereo not given)
- T/C [1]: 100 % of control
- T/C [2]: 96 % of control

Compound: COc1cc(C2c3cc4c(cc3CCN2C)OCO4)cc(OC)c1OC (stereo not given)
- T/C (dose: 50.0 mg/kg/injection, schedule: Q01DX005 (ip), vehicle: saline with Tween-80): 106 % of control
- T/C (dose: 100.0 mg/kg/injection, schedule: Q01DX005 (ip), vehicle: saline with Tween-80): 94 % of control

Compound: CCc1cccc2c(NCCCCCCCCCCNc3c4ccccc4nc4c(CC)cccc34)c3ccccc3nc12
- T/C (dose: 0.62 mg/kg/injection, schedule: Q## X009 (ip), vehicle: lactic acid): 104 % of control
- T/C (dose: 1.25 mg/kg/injection, schedule: Q## X009 (ip), vehicle: lactic acid): 107 % of control
- T/C (dose: 2.5 mg/kg/injection, schedule: Q## X009 (ip), vehicle: lactic acid): 113 % of control
